≈ marks a conversion by molar mass, not a printed value. Like-named read-outs stand apart in the source and are kept apart here.
Tests used:
Experiment in all cases: Minimum Inhibitory Concentration (MIC), agar plate incubation
Format in all cases: cell-based
[1] = system: Stenotrophomonas maltophilia SR21970
Experimental: (§1) Measurement of Minimum Inhibitory Concentration (MIC, microg/ml) was conducted according to the standard method of the Japan Society for Chemotherapy, and the amount of bacteria for inoculation was 1000 cfu/spot, and sensitive disc medium was used as the test medium, and conducted using agar plate incubation.
(§2) In the tables, a unit of the values of inhibitory activity is microg/ml (μg/ml).
(§3) Bacterial strains described in the above tables and enzyme (beta-lactamase) produced thereby are explained in Table 7.

[2] = system: Pseudomonas aeruginosa SR27060
Experimental: as §1, §2, §3

[3] = system: Acinetobacter baumannii SR24396
Experimental: as §1, §2, §3

[4] = system: Pseudomonas aeruginosa SR24
Experimental: as §1, §2, §3

[5] = system: Klebsiella pneumoniae ATCC 700603
Experimental: as §1, §2, §3

[6] = Stenotrophomonas maltophilia SR21970 (L-1, MBL producer strain, carbapenem resistant), 1000 cfu/spot, sensitive disc medium, read-out: Minimum Inhibitory Concentration (MIC)
[7] = Pseudomonas aeruginosa SR27060 (IMP-1, MBL producer strain, carbapenem resistant), 1000 cfu/spot, sensitive disc medium, read-out: Minimum Inhibitory Concentration (MIC)
[8] = Acinetobacter baumannii SR24396 (no enzyme), 1000 cfu/spot, sensitive disc medium, read-out: Minimum Inhibitory Concentration (MIC)
[9] = Pseudomonas aeruginosa SR24 (no enzyme, Ceftazidime sensitive strain), 1000 cfu/spot, sensitive disc medium, read-out: Minimum Inhibitory Concentration (MIC)
[10] = ATCC700603, Klebsiella pneumoniae ATCC 700603 (SHV-18, ESBL producer strain), 1000 cfu/spot, sensitive disc medium, read-out: Minimum Inhibitory Concentration (MIC)
[11] = Pseudomonas aeruginosa, SR27060, read-out: Minimum Inhibitory Concentration (MIC)
[12] = Acinetobacter baumannii, SR24396, read-out: Minimum Inhibitory Concentration (MIC)
[13] = Pseudomonas aeruginosa, SR24, read-out: Minimum Inhibitory Concentration (MIC)
[14] = Klebsiella pneumoniae, ATCC700603, read-out: Minimum Inhibitory Concentration (MIC)
[15] = Stenotrophomonas maltophilia, SR21970, read-out: Minimum Inhibitory Concentration (MIC)

| SMILES | MIC [1, 6] [µg/mL] | MIC [2, 7] [µg/mL] | MIC [3, 8] [µg/mL] | MIC [4, 9] [µg/mL] | MIC [5, 10] [µg/mL] | MIC [2, 11] [µg/mL] | MIC [3, 12] [µg/mL] | MIC [4, 13] [µg/mL] | MIC [5, 14] [µg/mL] | MIC [1, 15] [µg/mL] |
| --- | --- | --- | --- | --- | --- | --- | --- | --- | --- | --- |
| COc1c(O)ccc(C(=O)NCC[N+]2(CC3=C(C(=O)[O-])N4C(=O)C(NC(=O)/C(=N\OC(C)(C)C(=O)O)c5csc(N)n5)C4SC3)CCCC2)c1Cl (centres unmarked) [Comparative Compound 1, reference compound] | 16 (≈ 20.9 µM) | 32 (≈ 41.8 µM) | 64 (≈ 83.5 µM) | 4 (≈ 5.22 µM) | 16 (≈ 20.9 µM) | – | – | – | – | – |
| CC(C)(O/N=C(\C(=O)N[C@@H]1C(=O)N2C(C(=O)[O-])=C(C[N+]3(CCNC(=O)c4ccc(O)c(O)c4Cl)CCCC3)CS[C@H]12)c1nsc(N)n1)C(=O)O [Compound I-1] | 0.5 (≈ 0.664 µM) | 0.25 (≈ 0.332 µM) | 0.125 (≈ 0.166 µM) | 0.063 (≈ 0.0836 µM) | 0.5 (≈ 0.664 µM) | – | – | – | – | – |
| CC(C)(O/N=C(\C(=O)N[C@@H]1C(=O)N2C(C(=O)O)=C(C[N+]3(CCNC(=O)c4ccc(O)c(O)c4)CCCC3)CS[C@H]12)c1csc(N)n1)C(=O)O [Compound I-2] | – | 0.125 | 0.25 | 0.063 | 0.25 | – | – | – | – | – |
| CC(C)(O/N=C(\C(=O)N[C@@H]1C(=O)N2C(C(=O)O)=C(C[N+]3(CCNC(=O)c4cc(Cl)c(O)c(O)c4Cl)CCCC3)CS[C@H]12)c1csc(N)n1)C(=O)O [Compound I-3] | – | 0.125 | 0.125 | 0.031 | 0.125 | – | – | – | – | – |
| CC(C)(O/N=C(\C(=O)N[C@@H]1C(=O)N2C(C(=O)[O-])=C(C[N+]3(CCNC(=O)c4ccc(O)c(O)c4Cl)CCCCCC3)CS[C@H]12)c1csc(N)n1)C(=O)O [Compound I-8] | – | – | – | – | – | 0.125 (≈ 0.16 µM) | 0.25 (≈ 0.32 µM) | 0.031 (≈ 0.0397 µM) | 0.125 (≈ 0.16 µM) | – |
| CC(C)(O/N=C(\C(=O)N[C@@H]1C(=O)N2C(C(=O)[O-])=C(C[N+]3(CCNC(=O)c4ccc(O)c(O)c4Cl)CCCC3)CS[C@H]12)c1csc(N)n1)C(=O)O [Compound I-12] | 0.5 (≈ 0.665 µM) | 0.125 (≈ 0.166 µM) | 0.25 (≈ 0.332 µM) | 0.063 (≈ 0.0838 µM) | 0.25 (≈ 0.332 µM) | – | – | – | – | – |
| C[C@H](O/N=C(\C(=O)N[C@@H]1C(=O)N2C(C(=O)[O-])=C(C[N+]3(CCNC(=O)c4ccc(O)c(O)c4Cl)CCCC3)CS[C@H]12)c1nc(N)sc1Cl)C(=O)[O-].[Na+] [Compound I-15] | 4 | 0.125 | 0.25 | 0.063 | 0.125 | – | – | – | – | – |
| CC(C)(O/N=C(\C(=O)N[C@@H]1C(=O)N2C(C(=O)[O-])=C(C[N+]3(CCNC(=O)c4ccc(O)c(O)c4)CCCCC3)CS[C@H]12)c1csc(N)n1)C(=O)O [Compound I-17] | 0.5 (≈ 0.683 µM) | 0.125 (≈ 0.171 µM) | 0.5 (≈ 0.683 µM) | 0.063 (≈ 0.0861 µM) | 0.25 (≈ 0.342 µM) | – | – | – | – | – |
| CC(C)(O/N=C(\C(=O)N[C@@H]1C(=O)N2C(C(=O)[O-])=C(C[N+]3(CCNC(=O)c4ccc(O)c(O)c4Cl)CCCCC3)CS[C@H]12)c1csc(N)n1)C(=O)O [Compound I-18] | 0.5 (≈ 0.653 µM) | 0.25 (≈ 0.326 µM) | 0.25 (≈ 0.326 µM) | 0.063 (≈ 0.0822 µM) | 0.125 (≈ 0.163 µM) | – | – | – | – | – |
| CC(C)(O/N=C(\C(=O)N[C@@H]1C(=O)N2C(C(=O)[O-])=C(C[N+]3(CCNC(=O)c4cc(Cl)c(O)c(O)c4Cl)CCCCC3)CS[C@H]12)c1csc(N)n1)C(=O)O [Compound I-19] | 0.25 (≈ 0.312 µM) | 0.125 (≈ 0.156 µM) | 0.125 (≈ 0.156 µM) | 0.063 (≈ 0.0787 µM) | 0.125 (≈ 0.156 µM) | – | – | – | – | – |
| C[C@H](O/N=C(\C(=O)N[C@@H]1C(=O)N2C(C(=O)[O-])=C(C[N+]3(CCNC(=O)c4ccc(O)c(O)c4Cl)CCCCC3)CS[C@H]12)c1nc(N)sc1Cl)C(=O)[O-].[Na+] [Compound I-22] | 4 | 0.125 | 0.25 | 0.063 | 0.125 | – | – | – | – | – |
| C[C@H](O/N=C(\C(=O)N[C@@H]1C(=O)N2C(C(=O)[O-])=C(C[N+]3(CCNC(=O)c4cc(Cl)c(O)c(O)c4Cl)CCCCC3)CS[C@H]12)c1nc(N)sc1Cl)C(=O)[O-].[Na+] [Compound I-23] | – | 0.125 | 0.125 | 0.031 | 0.031 | – | – | – | – | – |
| C[C@H](O/N=C(\C(=O)N[C@@H]1C(=O)N2C(C(=O)[O-])=C(C[N+]3(CCN(C)C(=O)c4ccc(O)c(O)c4)CCCC3)CS[C@H]12)c1nc(N)sc1Cl)C(=O)O [Compound I-25] | – | 0.25 (≈ 0.332 µM) | 0.5 (≈ 0.665 µM) | 0.125 (≈ 0.166 µM) | 0.5 (≈ 0.665 µM) | – | – | – | – | – |
| C[C@H](O/N=C(\C(=O)N[C@@H]1C(=O)N2C(C(=O)[O-])=C(C[N+]3(CCCNC(=O)c4ccc(O)c(O)c4)CCCC3)CS[C@H]12)c1nc(N)sc1Cl)C(=O)O [Compound I-26] | – | 0.5 (≈ 0.665 µM) | 1 (≈ 1.33 µM) | 0.125 (≈ 0.166 µM) | 0.5 (≈ 0.665 µM) | – | – | – | – | – |
| C=C(O/N=C(\C(=O)N[C@@H]1C(=O)N2C(C(=O)[O-])=C(C[N+]3(CCNC(=O)c4ccc(O)c(O)c4Cl)CCCC3)CS[C@H]12)c1csc(N)n1)C(=O)O [II-1] | 2 (≈ 2.72 µM) | 0.25 (≈ 0.34 µM) | 0.125 (≈ 0.17 µM) | 0.125 (≈ 0.17 µM) | 0.5 (≈ 0.679 µM) | – | – | – | – | – |
| Nc1nc(/C(=N/OC2(C(=O)[O-])CC2)C(=O)N[C@@H]2C(=O)N3C(C(=O)O)=C(C[N+]4(CCNC(=O)c5ccc(O)c(O)c5Cl)CCCC4)CS[C@H]23)cs1 [II-2] | 0.5 (≈ 0.666 µM) | 0.25 (≈ 0.333 µM) | 0.125 (≈ 0.167 µM) | 0.125 (≈ 0.167 µM) | 0.5 (≈ 0.666 µM) | – | – | – | – | – |
| Nc1nc(/C(=N/O[C@H](C(=O)O)c2ccccc2)C(=O)N[C@@H]2C(=O)N3C(C(=O)[O-])=C(C[N+]4(CCNC(=O)c5ccc(O)c(O)c5Cl)CCCC4)CS[C@H]23)cs1 [II-3] | – | – | – | – | – | 0.5 (≈ 0.625 µM) | 0.25 (≈ 0.312 µM) | 0.125 (≈ 0.156 µM) | 0.125 (≈ 0.156 µM) | 1 (≈ 1.25 µM) |
| NC(=O)C[C@H](O/N=C(\C(=O)N[C@@H]1C(=O)N2C(C(=O)[O-])=C(C[N+]3(CCNC(=O)c4ccc(O)c(O)c4Cl)CCCC3)CS[C@H]12)c1csc(N)n1)C(=O)O [II-4] | – | – | – | – | – | 0.25 (≈ 0.32 µM) | 0.25 (≈ 0.32 µM) | 0.125 (≈ 0.16 µM) | 0.5 (≈ 0.64 µM) | 1 (≈ 1.28 µM) |
| Nc1nc(/C(=N/O/C(=C/C(=O)O)C(=O)O)C(=O)N[C@@H]2C(=O)N3C(C(=O)O)=C(C[N+]4(CCNC(=O)c5ccc(O)c(O)c5Cl)CCCC4)CS[C@H]23)cs1 [II-10] | 1 | 0.25 | 0.25 | 0.125 | 0.5 | – | – | – | – | – |
| C[C@@H](C[N+]1(CC2=C(C(=O)O)N3C(=O)[C@@H](NC(=O)/C(=N\OC(C)(C)C(=O)[O-])c4csc(N)n4)[C@H]3SC2)CCCC1)NC(=O)c1ccc(O)c(O)c1Cl [II-12] | – | – | – | – | – | 0.25 (≈ 0.326 µM) | 0.25 (≈ 0.326 µM) | 0.063 (≈ 0.0822 µM) | 0.25 (≈ 0.326 µM) | 1 (≈ 1.31 µM) |
| CC(C)(O/N=C(\C(=O)N[C@@H]1C(=O)N2C(C(=O)O)=C(C[N+]3(CCNC(=O)c4ccc(O)c(O)c4Cl)CC=CC3)CS[C@H]12)c1csc(N)n1)C(=O)[O-] [II-13] | 1 (≈ 1.33 µM) | 0.5 (≈ 0.666 µM) | 0.25 (≈ 0.333 µM) | 0.063 (≈ 0.084 µM) | 0.25 (≈ 0.333 µM) | – | – | – | – | – |
| C[C@H](O/N=C(\C(=O)N[C@@H]1C(=O)N2C(C(=O)[O-])=C(C[N+]3(CCNC(=O)c4ccc(O)c(O)c4Cl)CCCC3)CS[C@H]12)c1csc(N)n1)C(=O)O [II-22] | 2 (≈ 2.71 µM) | 0.25 (≈ 0.339 µM) | 0.125 (≈ 0.169 µM) | 0.125 (≈ 0.169 µM) | 0.5 (≈ 0.677 µM) | – | – | – | – | – |
| CC(C)[C@H](O/N=C(\C(=O)N[C@@H]1C(=O)N2C(C(=O)[O-])=C(C[N+]3(CCNC(=O)c4ccc(O)c(O)c4Cl)CCCC3)CS[C@H]12)c1csc(N)n1)C(=O)O [II-23] | 0.5 (≈ 0.653 µM) | 0.25 (≈ 0.326 µM) | 0.25 (≈ 0.326 µM) | 0.125 (≈ 0.163 µM) | 0.125 (≈ 0.163 µM) | – | – | – | – | – |
| Nc1nc(/C(=N/OC2(C(=O)O)CCC2)C(=O)N[C@@H]2C(=O)N3C(C(=O)[O-])=C(C[N+]4(CCNC(=O)c5ccc(O)c(O)c5Cl)CCCC4)CS[C@H]23)cs1 [II-24] | 0.5 (≈ 0.654 µM) | 0.5 (≈ 0.654 µM) | 0.125 (≈ 0.164 µM) | 0.063 (≈ 0.0824 µM) | 0.125 (≈ 0.164 µM) | – | – | – | – | – |
| CC(C)[C@H](O/N=C(\C(=O)N[C@@H]1C(=O)N2C(C(=O)[O-])=C(C[N+]34CCC(CNC(=O)c5ccc(O)c(O)c5Cl)(CC3)CC4)CS[C@H]12)c1csc(N)n1)C(=O)[O-].[Na+] [II-25] | 1 | 0.25 | 0.25 | 0.063 | 0.25 | – | – | – | – | – |

From US9238657B2, “Cephalosporin having catechol group” (SHIONOGI & CO., LTD., priority 2008, dated 2016)
